We go through 85 sequences from the supplement of paper PMC4314810.

± gives the standard deviation of the averaged measurements.

In this data set the test system is MCF7. Kind of data set: HRG-induced Akt activation (dPAkt = log2 pAkt/Akt HRG-stimulated minus log2 pAkt/Akt basal) (log2 ratio difference); higher = stronger HRG-induced Akt(T308) phosphorylation. The following applies: miRNA mimic concentration 10 nM; time after transfection 72 h; heregulin 10 ng/ml; stimulation time 1 h. The gist of the method:
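MCF7 cells ([…], 96-well plates) carrying one of 879 miRNA mimics, transfected at 10 nM final with Lipofectamine RNAiMax in two biological replicates, were stimulated after 72 h with 10 ng/ml heregulin-beta1 for 1 h or left unstimulated. Phospho-Akt(T308) and total Akt in cells fixed with 4% PFA were read by In-Cell Western on an Odyssey and corrected for column-wise fixation decay to give log2(pAkt/Akt). Heregulin-induced Akt activation is the replicate mean of stimulated minus unstimulated ratios.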
Turning to UGUAAACAUCCUACACUCUCAGC, the “HRG-induced Akt activation (log2)” value worked out at 0.867 ± 0.099.

As to UGUAAACAUCCUCGACUGGAAG, the “HRG-induced Akt activation (log2)” value is 1.22 ± 0.25. With UGUAAACAUCCUUGACUGGAAG, the “HRG-induced Akt activation (log2)” value was determined as 1.12 ± 0.049. For UGUAACAGCAACUCCAUGUGGA, the “HRG-induced Akt activation (log2)” value turned out to be 0.984 ± 0.7. The value for UGUAGUGUUUCCUACUUUAUGGA was 1.77 ± 0.26; that for UGUCACUCGGCUCGGCCCACUAC was 1.17 ± 0.18. Then UGUCAGUUUGUCAAAUACCCCA, with 1.28 ± 0.73. The value for UGUCUACUACUGGAGACACUGG was 2.12 ± 0.15. As for UGUCUCUGCUGGGGUUUCU, the “HRG-induced Akt activation (log2)” value is 1.89 ± 0.58.

In the case of UGUCUGCCCGCAUGCCUGCCUCU, the “HRG-induced Akt activation (log2)” value is 2.32 ± 0.13. For UGUCUUACUCCCUCAGGCACAU, the “HRG-induced Akt activation (log2)” value is 1.47 ± 0.054.

In the case of UGUCUUGCAGGCCGUCAUGCA, the “HRG-induced Akt activation (log2)” value is 1.68 ± 0.5. The value for UGUGACAGAUUGAUAACUGAAA was 1.84 ± 0.056. Then UGUGACUGGUUGACCAGAGGGG, with 1.6 ± 0.2; and UGUGAGGUUGGCAUUGUUGUCU, with 2.02 ± 0.55; and UGUGCAAAUCCAUGCAAAACUGA, with 0.657 ± 0.2. As for UGUGCAAAUCUAUGCAAAACUGA, the “HRG-induced Akt activation (log2)” value was determined as 0.8263 ± 0.0053. As for UGUGCGCAGGGAGACCUCUCCC, the “HRG-induced Akt activation (log2)” value is 0.835 ± 0.095.

With UGUGCUUGCUCGUCCCGCCCGCA, the “HRG-induced Akt activation (log2)” value is 1.82 ± 0.029.

As for UGUGUCACUCGAUGACCACUGU, the “HRG-induced Akt activation (log2)” value came out at 2.42 ± 0.089. Then UGUUCAUGUAGAUGUUUAAGC, with 1.08 ± 0.15; and UGUUUUGAUAACAGUAAUGU, with 1.44 ± 0.064; and UUAAGACUUGCAGUGAUGUUU, with 1.25 ± 0.66. Then UUAAUAUCGGACAACCAUUGU, with 1.72 ± 0.21; and UUAAUGCUAAUCGUGAUAGGGGU, with 0.789 ± 0.062.

On to UUACAGUUGUUCAACCAGUUACU, for which the “HRG-induced Akt activation (log2)” value was 1.44 ± 0.019. Then UUAGGCCGCAGAUCUGGGUGA, with 1.39 ± 0.89.

For the sequence UUAGGGCCCUGGCUCCAUCUCC, the “HRG-induced Akt activation (log2)” value stood at 1.954 ± 0.014. The value for UUAUAAAGCAAUGAGACUGAUU was 1.5 ± 0.79. The value for UUAUAAUACAACCUGAUAAGUG was 1.04 ± 0.33; that for UUAUCAGAAUCUCCAGGGGUAC was 2.16 ± 0.2. Turning to UUAUGGUUUGCCUGGGACUGAG, the “HRG-induced Akt activation (log2)” value was 1.74 ± 0.28.

With UUAUUGCUUAAGAAUACGCGUAG, the “HRG-induced Akt activation (log2)” value was 1.64 ± 0.095.

With UUCAACGGGUAUUUAUUGAGCA, the “HRG-induced Akt activation (log2)” value turned out to be 1.34 ± 0.24.

Turning to UUCAAGUAAUCCAGGAUAGGCU, the “HRG-induced Akt activation (log2)” value worked out at 1.19 ± 0.24. Turning to UUCAAGUAAUUCAGGAUAGGU, the “HRG-induced Akt activation (log2)” value is 1.06 ± 0.39. Then UUCAAGUAAUUCAGGUG, with 1.22 ± 0.15; and UUCACAAGGAGGUGUCAUUUAU, with 1.442 ± 0.013. Then UUCACAGGGAGGUGUCAU, with 1.82 ± 0.08; and UUCACAGUGGCUAAGUUCCGC, with 1.73 ± 0.22; and UUCACAGUGGCUAAGUUCUGC, with 1.73 ± 0.061. Then UUCACAUUGUGCUACUGUCUGC, with 1.59 ± 0.03; and UUCACCACCUUCUCCACCCAGC, with 1.57 ± 0.62; and UUCAUUCGGCUGUCCAGAUGUA, with 1.48 ± 0.1. In the case of UUCAUUUGGUAUAAACCGCGAUU, the “HRG-induced Akt activation (log2)” value stood at 2.42 ± 0.062.

For the sequence UUCCCUUUGUCAUCCUAUGCCU, the “HRG-induced Akt activation (log2)” value was 0.793 ± 0.043.

In the case of UUCCCUUUGUCAUCCUUCGCCU, the “HRG-induced Akt activation (log2)” value turned out to be 1 ± 0.3.

Regarding UUCCUAUGCAUAUACUUCUUUG, the “HRG-induced Akt activation (log2)” value amounted to 1.11 ± 0.32. Then UUCUCAAGGAGGUGUCGUUUAU, with 0.993 ± 0.67; and UUCUCCAAAAGAAAGCACUUUCUG, with 2.57 ± 0.12; and UUCUCCAAAAGGGAGCACUUUC, with 2.3 ± 0.097. On to UUCUCGAGGAAAGAAGCACUUUC, for which the “HRG-induced Akt activation (log2)” value turned out to be 1.61 ± 0.16. The value for UUCUGGAAUUCUGUGUGAGGGA was 1.78 ± 0.2. UUGAAAGGCUAUUUCUUGGUC: the “HRG-induced Akt activation (log2)” value was determined as 2.39 ± 0.036. The value for UUGAGAAGGAGGCUGCUG was 1.18 ± 0.17; that for UUGAGAAUGAUGAAUCAUUAGG was 1.82 ± 0.5; that for UUGCAGCUGCCUGGGAGUGACUUC was 0.96 ± 0.045. Then UUGCAUAGUCACAAAAGUGAUC, with 1.36 ± 0.096. Then UUGCAUAUGUAGGAUGUCCCAU, with 1.32 ± 0.079.

On to UUGCUCACUGUUCUUCCCUAG, for which the “HRG-induced Akt activation (log2)” value came out at 0.86933 ± 0.00015. Then UUGGCCACAAUGGGUUAGAAC, with 1.02 ± 0.1. Take UUGGGACAUACUUAUGCUAAA: the “HRG-induced Akt activation (log2)” value stood at 1.28 ± 0.2. In the case of UUGGGAUCAUUUUGCAUCCAUA, the “HRG-induced Akt activation (log2)” value is 1.13 ± 0.3. Then UUGGGGAAACGGCCGCUGAGUG, with 2.08 ± 0.097; and UUGUACAUGGUAGGCUUUCAUU, with 1.7 ± 0.31; and UUGUGCUUGAUCUAACCAUGU, with 1.1 ± 0.016. Regarding UUGUGUCAAUAUGCGAUGAUGU, the “HRG-induced Akt activation (log2)” value was found to be 1.768 ± 0.00038. Then UUUAACAUGGGGGUACCUGCUG, with 1.59 ± 0.42. The value for UUUAGAGACGGGGUCUUGCUCU was 1.54 ± 0.51; that for UUUAGGAUAAGCUUGACUUUUG was 1.37 ± 0.39; that for UUUCAAGCCAGGGGGCGUUUUUC was 0.989 ± 0.21.

For UUUCCAUAGGUGAUGAGUCAC, the “HRG-induced Akt activation (log2)” value amounted to 1.09 ± 0.68. On to UUUCCGGCUCGCGUGGGUGUGU, for which the “HRG-induced Akt activation (log2)” value turned out to be 1.627 ± 0.015. Then UUUGAGGCUACAGUGAGAUGUG, with 2.06 ± 0.034; and UUUGGCAAUGGUAGAACUCACACU, with 1.75 ± 0.06; and UUUGGCACUAGCACAUUUUUGCU, with 1.535 ± 0.007. Then UUUGGUCCCCUUCAACCAGCUA, with 1.61 ± 0.066; and UUUGGUCCCCUUCAACCAGCUG, with 1.54 ± 0.13.

Take UUUGUGACCUGGUCCACUAACC: the “HRG-induced Akt activation (log2)” value is 1.16 ± 0.88.

For the sequence UUUGUUCGUUCGGCUCGCGUGA, the “HRG-induced Akt activation (log2)” value is 1.23 ± 0.27. Then UUUUCAACUCUAAUGGGAGAGA, with 1.48 ± 0.1. Take UUUUGCAAUAUGUUCCUGAAUA: the “HRG-induced Akt activation (log2)” value stood at 1.01 ± 0.24. Turning to UUUUGCACCUUUUGGAGUGAA, the “HRG-induced Akt activation (log2)” value came to 1.55 ± 0.13.

For UUUUGCGAUGUGUUCCUAAUAU, the “HRG-induced Akt activation (log2)” value was determined as 1.67 ± 0.12. For UUUUUCAUUAUUGCUCCUGACC, the “HRG-induced Akt activation (log2)” value was 1.62 ± 0.14.
